# Source: patent US11173151B2, “Substituted triazole derivatives and uses thereof” (BAYER AKTIENGESELLSCHAFT, priority 2017, dated 2021)
# Assays:
# human V2 receptor = target: T1, human V2 receptor (Homo sapiens, UniProt P30518); assay: Cellular in vitro assay for determining vasopressin receptor activity, V2 receptor cell line (CHO, CRE-luciferase); type: cell-based; details: CHO cell line transfected with human V2 receptor; [Arg8]-vasopressin at EC50 concentration; read-out: IC50 hV2
# T1 construct: expressed in transfected cells; host or cells: CHO K1 (ATCC) expressing firefly luciferase under a CRE-responsive promoter
# T1 sequence (P30518 whole entry): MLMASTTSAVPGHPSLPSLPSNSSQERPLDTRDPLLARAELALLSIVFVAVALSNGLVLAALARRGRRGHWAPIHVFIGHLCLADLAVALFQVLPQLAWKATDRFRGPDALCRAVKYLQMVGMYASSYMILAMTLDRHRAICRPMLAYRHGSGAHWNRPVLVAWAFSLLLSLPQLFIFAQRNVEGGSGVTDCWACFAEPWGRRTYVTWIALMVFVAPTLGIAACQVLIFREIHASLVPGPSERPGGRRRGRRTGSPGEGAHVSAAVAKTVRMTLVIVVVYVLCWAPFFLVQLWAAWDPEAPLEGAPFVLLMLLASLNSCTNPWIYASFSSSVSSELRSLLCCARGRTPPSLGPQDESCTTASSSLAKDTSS
# human V1a receptor = target: T2, human V1a receptor (Homo sapiens, UniProt P37288); assay: Cellular in vitro assay for determining vasopressin receptor activity, V1a receptor cell line (CHO, aequorin luminescence); type: cell-based; details: for IC50: CHO cell line transfected with human V1a receptor, [Arg]-vasopressin at EC50 concentration, read-out: IC50 hV1a; for ratio IC50 hV2/hV1a: selectivity ratio IC50 hV2 / IC50 hV1a
# T2 construct: expressed in transfected cells; host or cells: CHO K1 (ATCC), also stably transfected with a modified aequorin
# T2 sequence (P37288 whole entry): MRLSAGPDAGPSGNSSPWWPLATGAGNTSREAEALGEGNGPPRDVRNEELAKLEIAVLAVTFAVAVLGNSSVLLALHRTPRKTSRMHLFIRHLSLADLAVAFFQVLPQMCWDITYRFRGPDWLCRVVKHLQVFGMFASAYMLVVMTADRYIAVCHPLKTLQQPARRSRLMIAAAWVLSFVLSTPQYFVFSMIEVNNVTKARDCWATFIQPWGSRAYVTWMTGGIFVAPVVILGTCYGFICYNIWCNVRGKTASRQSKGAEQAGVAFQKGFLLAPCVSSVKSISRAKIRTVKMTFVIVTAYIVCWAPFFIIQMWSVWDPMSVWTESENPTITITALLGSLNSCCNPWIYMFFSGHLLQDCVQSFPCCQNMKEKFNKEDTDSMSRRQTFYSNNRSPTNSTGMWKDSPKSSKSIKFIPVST
# How it was run: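 Luminescence from reconstituted aequorin, reporting intracellular calcium release, was measured immediately after adding [Arg]-vasopressin at EC50 concentration to CHO K1 cells pretreated 10 minutes with graded compound concentrations. Inhibition gave IC50 values.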
Structure (SMILES),IC50 (human V2 receptor) [nM],IC50 (human V1a receptor) [nM],ratio IC50 hV2/hV1a (human V1a receptor)
"O=C(NC1CC1)c1ccncc1-n1nc(Cn2nc(-c3ccc(Cl)cc3)n(C[C@H](O)C(F)(F)F)c2=O)nc1C(=O)N1CCS(=O)(=O)CC1 [Example 520, 3-{3-({3-(4-Chlorophenyl)-5-oxo-4-[(2S)-3,3,3-trifluoro-2-hydroxypropyl]-4,5-dihydro-1H-1,2,4-triazol-1-yl}methyl)-5-[(1,1-dioxidothiomorpholin-4-yl)carbonyl]-1H-1,2,4-triazol-1-yl}-N-cyclopropylpyridine-4-carboxamide]",665,295,2.3
"CC1(NC(=O)c2ccncc2-n2nc(Cn3nc(-c4ccc(Cl)cc4)n(C[C@H](O)C(F)(F)F)c3=O)nc2C(=O)N2CCS(=O)(=O)CC2)CC1 [Example 521, 3-{3-({3-(4-Chlorophenyl)-5-oxo-4-[(2S)-3,3,3-trifluoro-2-hydroxypropyl]-4,5-dihydro-1H-1,2,4-triazol-1-yl}methyl)-5-[(1,1-dioxidothiomorpholin-4-yl)carbonyl]-1H-1,2,4-triazol-1-yl}-N-(1-methylcyclopropyl)pyridine-4-carboxamide]",885,6250,0.1
"O=C1CN(C(=O)c2nc(Cn3nc(-c4ccc(Cl)cc4)n(C[C@H](O)C(F)(F)F)c3=O)nn2-c2ncccc2C(=O)NCC(F)(F)F)CCN1 [Example 524, 2-{3-({3-(4-Chlorophenyl)-5-oxo-4-[(2S)-3,3,3-trifluoro-2-hydroxypropyl]-4,5-dihydro-1H-1,2,4-triazol-1-yl}methyl)-5-[(3-oxopiperazin-1-yl)carbonyl]-1H-1,2,4-triazol-1-yl}-N-(2,2,2-trifluoroethyl)pyridine-3-carboxamide]",3450,4650,0.7
"CC1(NC(=O)c2cccnc2-n2nc(Cn3nc(-c4ccc(Cl)cc4)n(C[C@H](O)C(F)(F)F)c3=O)nc2C(=O)N2CCNC(=O)C2)CC1 [Example 525, 2-{3-({3-(4-Chlorophenyl)-5-oxo-4-[(2S)-3,3,3-trifluoro-2-hydroxypropyl]-4,5-dihydro-1H-1,2,4-triazol-1-yl}methyl)-5-[(3-oxopiperazin-1-yl)carbonyl]-1H-1,2,4-triazol-1-yl}-N-(1-methylcyclopropyl)pyridine-3-carboxamide]",6550,9400,0.7
"O=C(NCC(F)(F)F)c1cccnc1-n1nc(Cn2nc(-c3ccc(Cl)cc3)n(C[C@H](O)C(F)(F)F)c2=O)nc1C(=O)N1CCS(=O)(=O)CC1 [Example 528, 2-{3-({3-(4-Chlorophenyl)-5-oxo-4-[(2S)-3,3,3-trifluoro-2-hydroxypropyl]-4,5-dihydro-1H-1,2,4-triazol-1-yl}methyl)-5-[(1,1-dioxidothiomorpholin-4-yl)carbonyl]-1H-1,2,4-triazol-1-yl}-N-(2,2,2-trifluoroethyl)pyridine-3-carboxamide]",780,75.5,10.3
"O=C(NCCC(F)(F)F)c1cccnc1-n1nc(Cn2nc(-c3ccc(Cl)cc3)n(C[C@H](O)C(F)(F)F)c2=O)nc1C(=O)N1CCS(=O)(=O)CC1 [Example 529, 2-{3-({3-(4-Chlorophenyl)-5-oxo-4-[(2S)-3,3,3-trifluoro-2-hydroxypropyl]-4,5-dihydro-1H-1,2,4-triazol-1-yl}methyl)-5-[(1,1-dioxidothiomorpholin-4-yl)carbonyl]-1H-1,2,4-triazol-1-yl}-N-(3,3,3-trifluoropropyl)pyridine-3-carboxamide]",2900,97.5,29.7
"O=C(NC1CC1)c1cccnc1-n1nc(Cn2nc(-c3ccc(Cl)cc3)n(C[C@H](O)C(F)(F)F)c2=O)nc1C(=O)N1CCS(=O)(=O)CC1 [Example 530, 2-{3-({3-(4-Chlorophenyl)-5-oxo-4-[(2S)-3,3,3-trifluoro-2-hydroxypropyl]-4,5-dihydro-1H-1,2,4-triazol-1-yl}methyl)-5-[(1,1-dioxidothiomorpholin-4-yl)carbonyl]-1H-1,2,4-triazol-1-yl}-N-cyclopropylpyridine-3-carboxamide]",5250,530,9.9
"CC1(NC(=O)c2cccnc2-n2nc(Cn3nc(-c4ccc(Cl)cc4)n(C[C@H](O)C(F)(F)F)c3=O)nc2C(=O)N2CCS(=O)(=O)CC2)CC1 [Example 531, 2-{3-({3-(4-Chlorophenyl)-5-oxo-4-[(2S)-3,3,3-trifluoro-2-hydroxypropyl]-4,5-dihydro-1H-1,2,4-triazol-1-yl}methyl)-5-[(1,1-dioxidothiomorpholin-4-yl)carbonyl]-1H-1,2,4-triazol-1-yl}-N-(1-methylcyclopropyl)pyridine-3-carboxamide]",2850,96.5,29.5
"CC(C)(N)CNC(=O)c1nc(Cn2nc(-c3ccc(Cl)cc3)n(C[C@H](O)C(F)(F)F)c2=O)nn1-c1cnccc1C(=O)NCC(F)(F)F [Example 534, 3-{5-[(2-Amino-2-methylpropyl)carbamoyl]-3-({3-(4-chlorophenyl)-5-oxo-4-[(2S)-3,3,3-trifluoro-2-hydroxypropyl]-4,5-dihydro-1H-1,2,4-triazol-1-yl}methyl)-1H-1,2,4-triazol-1-yl}-N-(2,2,2-trifluoroethyl)pyridine-4-carboxamide]",3620,180,20.1
